Patent US7745399B2, “Hsp70 peptide stimulating natural killer (NK) cell activity and uses thereof” (multimmune GmbH, priority 2000, dated 2010)
Like-named read-outs stand apart in the source and are kept apart here.

Key:
[1] = tested on: NK cells; assay: NK cell stimulation (3H thymidine uptake assays and 51Cr release assays); type: cell-based, human
Protocol: (§1) The proliferative capacity of NK and T cells against different Hsp70 peptides and Hsp70 protein (loc. sit) was determined in a standard ^3H thymidine uptake assay (22). Viable cells (5×10^4 cells/100 μl) were seeded in 96-well flat-bottom microtiter plates (Greiner Nuertingen, Germany) in supplemented RPMI-1640 medium containing 100 IU IL-2 and Hsp70 protein (10 μg/ml) or different amounts of Hsp70 peptides ranging from 0.02 up to 10 μg/ml. As an internal control the proliferation against IL-2 alone was measured in parallel. After a 24 or 48 hour incubation period the cells were pulsed with ^3H thymidine (1 μCi/well) and the total uptake was measured following an 18 hour incubation period at 37° C. in a liquid scintillation counter (Beckmann instruments, Munich, Germany).
The cytolytic activity of NK cells was monitored in a standard ^51Cr assay (23). Dilutions of the effector cells were incubated with ^51Cr-labeled (100 μCi of Na^51CrO4, NEN-Dupont, Boston, Mass.) tumor target cells (3×10^3 cells per well) in duplicates at a final volume of 200 μl RPMI-1640 medium supplemented with 10% FCS at 37° C. for 4 h in 96-well U-bottom plates (Greiner, Nuertingen, Germany). After the incubation period supernatants were collected and the radioactivity was counted in a γ-counter (Packard Instruments). The percentage of specific lysis was determined according to the equation: (experimental release−spontaneous release)/(maximum release−spontaneous release)×100. The percentage spontaneous release was always<15% for each target cell line.

[2] = tested on: NK cells; conditions: Table II, complete proteins; cited from earlier work
[3] = tested on: NK cells; assay: FACScan phenotypic characterization of stimulated NK cells; type: cell-based, human; conditions: NK cells stimulated with IL-2 plus peptide 2 μg/ml
Protocol: (§2) Cytolytic activity of NK cells stimulated with IL-2 alone or with IL-2 plus the 14-mer peptide TKD or with IL-2 plus the 8-mer peptide NLL. Cytolytic activity of NK cells either stimulated with low dose IL-2 (100 IU/ml) alone or with IL-2 plus the 14-mer peptide TKD (2 μg/ml) or with IL-2 plus the 8-mer peptide NLL (2 μg/ml) for 4 days. As target cells ^51Cr labeled CX+ (FIG. 2a) and CX− (FIG. 2b) tumor cells, that differ with respect to their capability to express Hsp70 on the plasma membrane, were used. The results are expressed as the percentage of specific lysis at varying E:T ratios ranging from 2:1 up to 40:1. The percentage spontaneous release for each tumor target cell line was less than 20%.
Directly fluorescein-conjugated mAb (CD3FITC/CD16/CD56^PE, Becton Dickinson, Heidelberg, Germany) were added to cell suspensions (0.1×10^6 cells), incubated for 20 min on ice, washed and analysed on a FACScan instrument (Becton Dickinson, Heidelberg, Germany). The percentage of positively stained cells was defined as the number of specifically stained, viable (propidium-iodide negative) cells minus the number of cells stained with an isotype matched control antibody on a FACScan instrument (Becton Dickinson, Heidelberg, Germany).

[4] = tested on: NK cells; assay: 3H thymidine uptake assay, proliferative response of NK cells; type: cell-based, human; conditions: IL-2 100 IU/ml plus peptide 0.02 up to 8 μg/ml
Protocol: Comparison of the proliferative response of NK cells against Hsp70 peptides. NK cells were stimulated either with IL-2 (100 IU/ml) alone or with IL-2 plus peptides NLL (8-mer, FIG. 1a), TKD (14-mer, FIG. 1b) and GIPP (13 mer, FIG. 1c) at concentrations 0.02, 0.2, 2, 4 and 8 μg/ml. As a positive control NK cells were stimulated with rHsp70 protein at a concentration of 10 μg/ml. The proliferative response of NK cells was measured 72 h after peptide incubation and an 18 h incubation period with ^3H thymidine (1 μCi/ml). In FIG. 1e stimulation with TKD in a more refined scale between 0.1 and 3 μg is shown. […] Values are given as the means of four independent experiments+/−SD.
(§3) Briefly, monocyte depleted peripheral blood lymphocytes (PBL) were isolated from buffy coats of healthy human volunteers (Multhoff et al., 1995a). NK cells were purified by adherence selection following a modified protocol of Vujanovic (1993). T cells remain in the supernatant cell population.
as §1

[5] = tested on: T cells; assay: 3H thymidine uptake assay, proliferative response of T cells; type: cell-based, human; conditions: peptides plus low dose IL-2 (100 IU/ml), any tested concentration
Protocol: as §3, §1

[6] = tested on: CX− tumor cells; assay: 51Cr release assay (CML), cytolytic activity of stimulated NK cells against CX-; type: cell-based, human; conditions: NK cells stimulated 4 days with IL-2 100 IU/ml plus peptide 2 μg/ml
Protocol: as §2, with “The percentage spontaneous release for each tumor target cell line was less than 20%.” left out
(§4) The colon carcinoma sublines CX+ (>90% Hsp70 positive cells) and CX− (<20% Hsp70 positive cells) described in patent application EP-A2-084 300 5 and originally derived from CX2 colon carcinoma cells (Tumorzentrum Heidelberg, TZB 610005, Germany) that differ with respect to their capacity to express Hsp70 on their plasma membrane were cultured at 37° C., 5% CO2 in RPMI-1640 medium (Gibco, Eggenstein, Germany) supplemented with heat-inactivated 10% FCS (Gibco) and 2 mM L-glutamine and antibiotics (penicillin/streptomycin). […] All cell lines were free from mycoplasma contamination as determined by repeated testing using the 6-methylpurin desoxyribosid assay (Boehringer Mannheim, Germany).
(§5) The cytolytic activity of NK cells was monitored in a standard ^51Cr assay (23). […]

[7] = tested on: CX+ tumor cells; assay: 51Cr release assay (CML), cytolytic activity of stimulated NK cells against CX+; type: cell-based, human; conditions: NK cells stimulated 4 days with IL-2 100 IU/ml plus peptide 2 μg/ml, compared to IL-2 alone or IL-2 plus NLL
Protocol: as §2, with “The percentage spontaneous release for each tumor target cell line was less than 20%.” left out
as §4, §5

[8] = tested on: NK cells; conditions: cited from earlier work
[9] = Table III, peptides only, 3H thymidine uptake and 51Cr release assays

## A A D N K S L G Q F N L D G (AADNKSLGQFNLDG) [DNAK, peptide, Dnak aa 447-460]
[1]; [9]
  NK cell stimulation: no

## Dank (complete protein): DnaK complete protein
[2]
  NK cell stimulation: no

## EGERAMTKDNNLLGRFELSG (EGERAMTKDNNLLGRFELSG) [Hsp70 (peptide) 441-463, 20 mer peptide of Hsp70]
[1]; Table II, peptides
  NK cell stimulation: yes

## G E R A M T K D N N L L G R F E L S G (GERAMTKDNNLLGRFELSG) [Hsp70 445-463, peptide, Hsp70 aa 445-463]
[1]; [9]
  NK cell stimulation: yes

## Hsc70 (complete protein): Hsc70 complete protein
[2]
  NK cell stimulation: no

## Hsp70hom (complete protein): testis specific member of the Hsp70 family, complete protein
[2]
  NK cell stimulation: yes

## NLLGRFEL
[3]
  CD3 positive cells: 8%
  CD16/56 positive cells: 80%
[4]
  proliferative capacity of NK cells: did not stimulate
[5]
  T cell growth: none of the three peptides NLL, GIPP or TKD stimulates T cell growth
[6]
  lysis of CX− tumor cells: no significant differences
[1]; Table II, peptides
  NK cell stimulation: no
[1]; [9]
  NK cell stimulation: no

## NLLGRFELSGIPP [13-mer C-terminal extended peptide, Hsp70 aa 454-466]
[4]
  proliferative capacity of NK cells: did not stimulate
[5]
  T cell growth: none of the three peptides NLL, GIPP or TKD stimulates T cell growth
[1]; Table II, peptides
  NK cell stimulation: no
[1]; [9]
  NK cell stimulation: no

## T K D N N L L G K F E L T G (TKDNNLLGKFELTG) [Hsc70, peptide, Hsc70 aa 450-463]
[1]; [9]
  NK cell stimulation: no

## T K D N N L L G R F E L (TKDNNLLGRFEL) [TKD12, peptide, Hsp70 aa 450-461]
[1]; [9]
  NK cell stimulation: no

## T K D N N L L G R F E L S G (TKDNNLLGRFELSG) [14-mer peptide, Hsp70 aa 450-463]
[3]
  CD3 positive cells: 6%
  CD16/56 positive cells: 79%
[4]
  proliferative capacity of NK cells: comparable immunostimulatory capacity like full length Hsp70 protein
[5]
  T cell growth: none of the three peptides NLL, GIPP or TKD stimulates T cell growth
[6]
  lysis of CX− tumor cells: no significant differences
[1]; Table II, peptides
  NK cell stimulation: yes
[1]; [9]
  NK cell stimulation: yes
[7]
  lytic activity against Hsp70 expressing CX+ tumor cells: significantly enhanced lytic activity

## T K D N N L L G R F E L T G (TKDNNLLGRFELTG) [HOM, peptide, Hsp70hom aa 450-463]
[1]; [9]
  NK cell stimulation: low

## rHsp70: Human recombinant Hsp70 protein from StressGen (SPP-755)
[8]; defined previously
  optimal stimulatory dose: 10 µg/mL
[8]; low dose IL-2 (100 IU/ml) plus protein, compared to IL-2 only
  proliferative response of human NK cells: increase the proliferative response
